The results in this text go back to patent US8106055B2, “Substituted amide compounds” (Gruenenthal GmbH, priority 2007, dated 2012).

The target in one experiment is T1, human μ opiate receptor (Homo sapiens, UniProt P35372).
T1 construct: purchased PerkinElmer Life Sciences, Zaventem, Belgium RB-HOM; host or cells: CHO-K1 cells (membrane preparation)
Briefly: Affinity for the human μ opiate receptor ([3H]-naloxone displacement, CHO-K1 receptor membrane preparation, SPA). Format: binding. As to conditions: test concentration of 1 μM. A digest of the protocol:
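Membranes from CHO-K1 cells expressing the human μ opiate receptor (15-40 μg protein per well) were incubated with test compound, 1 nmol/l [3H]-naloxone and WGA-SPA beads in 50 mmol/l Tris-HCl with 0.06% BSA for 90 minutes at room temperature. Values are % inhibition of specific binding at 1 μmol/l.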

Experiment [1] concerns the target T2, bradykinin 1 receptor (B1R) of the rat (Rattus norvegicus, UniProt P97583).
T2 construct: expressed in transfected cells; host or cells: CHO K1 cells
T2 sequence (P97583 1-337): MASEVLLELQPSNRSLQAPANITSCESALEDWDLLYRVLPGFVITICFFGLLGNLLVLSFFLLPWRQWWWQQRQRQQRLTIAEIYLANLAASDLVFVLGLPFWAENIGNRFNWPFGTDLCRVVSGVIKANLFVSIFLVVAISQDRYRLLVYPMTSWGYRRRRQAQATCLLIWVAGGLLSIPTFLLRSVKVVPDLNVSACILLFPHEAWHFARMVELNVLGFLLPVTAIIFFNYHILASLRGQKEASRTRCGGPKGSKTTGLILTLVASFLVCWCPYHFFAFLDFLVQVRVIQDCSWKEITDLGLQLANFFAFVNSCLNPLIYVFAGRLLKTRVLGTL
The experiment can be described thus: Functional investigation on the rat bradykinin 1 receptor (B1R), Ca2+ FLIPR assay in CHO K1 rB1R cells. Type of experiment: cell-based. The following applies: B1R antagonism rat; test substance 10 μM; Ca2+ FLIPR, CHO K1 rB1R cells. The gist of the method:
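Cells were dye-loaded with Fluo-4 plus probenecid, then test substances added and Ca2+ influx compared with agonist control for % activation. After 10-20 min, EC80 agonist (Lys-Des-Arg9-bradykinin human; Des-Arg9-bradykinin rat) was applied; suppression gave % inhibition and IC50 values.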

T1 sequence (P35372 whole entry): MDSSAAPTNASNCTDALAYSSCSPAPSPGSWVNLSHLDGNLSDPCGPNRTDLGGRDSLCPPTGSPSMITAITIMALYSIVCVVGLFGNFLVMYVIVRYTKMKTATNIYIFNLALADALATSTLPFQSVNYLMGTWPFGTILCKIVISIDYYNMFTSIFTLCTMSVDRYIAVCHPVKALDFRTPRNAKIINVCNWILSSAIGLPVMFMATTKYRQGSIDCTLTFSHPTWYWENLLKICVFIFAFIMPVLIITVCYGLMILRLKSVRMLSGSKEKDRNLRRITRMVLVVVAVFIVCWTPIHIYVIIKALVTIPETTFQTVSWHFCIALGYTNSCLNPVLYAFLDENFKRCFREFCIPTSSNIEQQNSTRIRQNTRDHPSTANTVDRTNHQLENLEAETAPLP

With `COc1cc(C)c(S(=O)(=O)N(CCOCC(=O)NCCC2CCC(C(c3ccc(Cl)cc3)N(C)C)CC2)Cc2ccccc2)c(C)c1` (stereo not drawn) [Example 569], at human μ opiate receptor, the “μ (binding on the μ opioid receptor, % inhibition)” value amounted to 10%. The “B1R Ant. r [10 μM] % Inhibition” value in experiment [1] is recorded as 9%.

On to `COc1ccc(S(=O)(=O)N2CCCCC2COCC(=O)NCC2CCC(C(CCc3ccccc3)N(C)C)CC2)cc1OC` (stereo not drawn) [Example 570], for which the “μ (binding on the μ opioid receptor, % inhibition)” value at human μ opiate receptor (1 µM) is 16%. The “B1R Ant. r [10 μM] % Inhibition” value in experiment [1] is given as 4%.

With `COc1ccc(S(=O)(=O)N(C)CCOCC(=O)NCC2CCC(C(CCc3ccccc3)N(C)C)CC2)cc1OC` (stereo not drawn) [Example 571], on human μ opiate receptor, the “μ (binding on the μ opioid receptor, % inhibition)” value was 14%. Further, in experiment [1], the “B1R Ant. r [10 μM] % Inhibition” value is 15%.

Consider `COc1ccc(S(=O)(=O)N2CCCC2COCC(=O)NCC2CCC(C(CCc3ccccc3)N(C)C)CC2)cc1` (stereo not drawn) [Example 572], for which the “μ (binding on the μ opioid receptor, % inhibition)” value at human μ opiate receptor is listed as 29%. The “B1R Ant. r [10 μM] % Inhibition” value in experiment [1] worked out at 62%.

On to `CN(C)C(CCc1ccccc1)C1CCC(CNC(=O)COC2CCN(S(=O)(=O)c3ccccc3)C2)CC1` (stereo not drawn) [Example 573], for which the “μ (binding on the μ opioid receptor, % inhibition)” value at human μ opiate receptor is recorded as 23%. Also, in experiment [1], the “B1R Ant. r [10 μM] % Inhibition” value was found to be 14%.

Regarding `CN(C)C(CCc1ccccc1)C1CCC(CNC(=O)COC2CCN(S(=O)(=O)c3ccc(F)cc3)C2)CC1` (stereo not drawn) [Example 574], at human μ opiate receptor, the “μ (binding on the μ opioid receptor, % inhibition)” value worked out at 18%. For the same compound, in experiment [1], the “B1R Ant. r [10 μM] % Inhibition” value was found to be 26%.

Take `CN(C)C(c1ccc(Cl)cc1)C1CCC(CCNC(=O)COCCN(C)S(=O)(=O)c2ccc(OC(F)(F)F)cc2)CC1` (stereo not drawn) [Example 575]: the “μ (binding on the μ opioid receptor, % inhibition)” value on human μ opiate receptor stood at 11%. Further, in experiment [1], the “B1R Ant. r [10 μM] % Inhibition” value is 26%.

As to `COc1cc(C)c(S(=O)(=O)N(CCOCC(=O)NCCC2CCC(C(c3ccc(Cl)cc3)N(C)C)CC2)Cc2ccccc2)c(C)c1C` (stereo not drawn) [Example 576], at human μ opiate receptor, the “μ (binding on the μ opioid receptor, % inhibition)” value amounted to 15%. For the same compound, in experiment [1], the “B1R Ant. r [10 μM] % Inhibition” value amounted to 3%.

For `CN(C)C(CCc1ccccc1)C1CCC(CNC(=O)COC2CCN(S(=O)(=O)c3ccccc3)CC2)CC1` (stereo not drawn) [Example 578], the “μ (binding on the μ opioid receptor, % inhibition)” value on human μ opiate receptor turned out to be 12%. Besides, the “B1R Ant. r [10 μM] % Inhibition” value in experiment [1] came to 12%.

Turning to `CN(C)C(CCc1ccccc1)C1CCC(CNC(=O)COCCN(C)S(=O)(=O)c2c(Cl)cccc2Cl)CC1` (stereo not drawn) [Example 580], on human μ opiate receptor (1 µM), the “μ (binding on the μ opioid receptor, % inhibition)” value is reported as 13%. In addition, in experiment [1], the “B1R Ant. r [10 μM] % Inhibition” value is 44%.

`COc1ccc(S(=O)(=O)N2CCCCC2COCC(=O)NCCC2CCC(C(c3cccc(F)c3)N(C)C)CC2)cc1OC` (stereo not drawn) [Example 581]: the “μ (binding on the μ opioid receptor, % inhibition)” value at human μ opiate receptor (1 µM) is given as 9%. Further, the “B1R Ant. r [10 μM] % Inhibition” value in experiment [1] stood at 8%.

In the case of `CN(C)C(c1ccc(F)cc1)C1CCC(CNC(=O)COCCC2CCN(S(=O)(=O)c3ccccc3)CC2)CC1` (stereo not drawn) [Example 583], the “μ (binding on the μ opioid receptor, % inhibition)” value on human μ opiate receptor was determined as 7%. The “B1R Ant. r [10 μM] % Inhibition” value in experiment [1] came to 20%.

Consider `CN(C)C(c1ccc(Cl)cc1)C1CCC(CNC(=O)COCCC2CCN(S(=O)(=O)c3ccccc3)CC2)CC1` (stereo not drawn) [Example 584], for which the “μ (binding on the μ opioid receptor, % inhibition)” value at human μ opiate receptor amounted to 7%. For the same compound, in experiment [1], the “B1R Ant. r [10 μM] % Inhibition” value amounted to 41%.

With `CN(C)C(c1ccc(F)cc1)C1CCC(CCNC(=O)COCCN(C)S(=O)(=O)c2ccc(Cl)cc2Cl)CC1` (stereo not drawn) [Example 586], the “μ (binding on the μ opioid receptor, % inhibition)” value at human μ opiate receptor came out at 3%. Further, in experiment [1], the “B1R Ant. r [10 μM] % Inhibition” value is 76%.

For the compound `Cc1cc(C)c(S(=O)(=O)N(C)CCOCC(=O)NCCC2CCC(C(c3cccc(F)c3)N(C)C)CC2)c(C)c1` (stereo not drawn) [Example 587], the “μ (binding on the μ opioid receptor, % inhibition)” value on human μ opiate receptor was −5%. In addition, in experiment [1], the “B1R Ant. r [10 μM] % Inhibition” value is 16%.
